Source: PMC9715518, “Human and rat microsomal metabolites of N-tert-butoxycarbonylmethamphetamine and its urinary metabolites in rat” (Forensic Toxicology, 2021)

Assays:
[1] = Microsomal metabolism test, human liver microsomes; conditions: for Detection after incubation of BocMA (LC–QToF–MS): HLM incubation of BocMA; for Share of the degraded products detected as this metabolite: HLM, first 8 min
[2] = Microsomal metabolism test, rat liver microsomes; conditions: for Detection after incubation of BocMA (LC–QToF–MS): RLM incubation of BocMA; for Share of the degraded products detected as this metabolite: RLM, first 3 min; for Incubation time at which peak intensity was highest: RLM test
[3] = Rat administration test, urinary excretion; conditions: for M1–D1 absolute amount in urine after hydrolysis / M1–D1 concentration in urine after hydrolysis / M1–D1 concentration in urine before hydrolysis / M1–D2 absolute amount in urine after hydrolysis / M1–D2 concentration in urine after hydrolysis / M1–D2 concentration in urine before hydrolysis / Detection in rat urine (LC–QToF–MS): BocMA 20 mg/kg i.p.; for Detection in rat urine (LC–QToF–MS): urine 0–72 h, n = 3
[4] = within 3–4 days; cited from earlier work

CC(C(O)c1ccccc1)N(C)C(=O)OC(C)(C)C (single isomer, unassigned) [M1–D1, N-tert-butoxycarbonylephedrine]
Detection after incubation of BocMA (LC–QToF–MS) [1]: produced | Share of the degraded products detected as this metabolite [1]: 10% | Detection after incubation of BocMA (LC–QToF–MS) [2]: detected | Share of the degraded products detected as this metabolite [2]: 5% | M1–D1 absolute amount in urine after hydrolysis ([3]; rat no. 1, urine 0–4 h): 0.69 ng | M1–D1 concentration in urine after hydrolysis ([3]; rat no. 1, urine 0–4 h): 0.46 ng/mL | M1–D1 concentration in urine before hydrolysis ([3]; rat no. 1, urine 0–4 h): 0.47 ng/mL | M1–D1 absolute amount in urine after hydrolysis ([3]; rat no. 1, urine 0–72 h total): 57 ng | M1–D1 absolute amount in urine after hydrolysis ([3]; rat no. 1, urine 4–8 h): 54 ng | M1–D1 concentration in urine after hydrolysis ([3]; rat no. 1, urine 4–8 h): 54 ng/mL | M1–D1 concentration in urine before hydrolysis ([3]; rat no. 1, urine 4–8 h): 0.51 ng/mL | M1–D1 absolute amount in urine after hydrolysis ([3]; rat no. 2, urine 0–4 h): 10 ng | M1–D1 concentration in urine after hydrolysis ([3]; rat no. 2, urine 0–4 h): 5.2 ng/mL | M1–D1 concentration in urine before hydrolysis ([3]; rat no. 2, urine 0–4 h): 6.5 ng/mL | M1–D1 absolute amount in urine after hydrolysis ([3]; rat no. 2, urine 0–72 h total): 260 ng | M1–D1 absolute amount in urine after hydrolysis ([3]; rat no. 2, urine 4–8 h): 180 ng | M1–D1 concentration in urine after hydrolysis ([3]; rat no. 2, urine 4–8 h): 89 ng/mL | M1–D1 concentration in urine before hydrolysis ([3]; rat no. 2, urine 4–8 h): 3.0 ng/mL | M1–D1 absolute amount in urine after hydrolysis ([3]; rat no. 2, urine 8–24 h): 72 ng | M1–D1 concentration in urine after hydrolysis ([3]; rat no. 2, urine 8–24 h): 4.8 ng/mL | M1–D1 concentration in urine before hydrolysis ([3]; rat no. 2, urine 8–24 h): 3.0 ng/mL | M1–D1 absolute amount in urine after hydrolysis ([3]; rat no. 3, urine 0–4 h): 70 ng | M1–D1 concentration in urine after hydrolysis ([3]; rat no. 3, urine 0–4 h): 140 ng/mL | M1–D1 concentration in urine before hydrolysis ([3]; rat no. 3, urine 0–4 h): 50 ng/mL | M1–D1 absolute amount in urine after hydrolysis ([3]; rat no. 3, urine 0–72 h total): 1500 ng | M1–D1 absolute amount in urine after hydrolysis ([3]; rat no. 3, urine 4–8 h): 440 ng | M1–D1 concentration in urine after hydrolysis ([3]; rat no. 3, urine 4–8 h): 220 ng/mL | M1–D1 concentration in urine before hydrolysis ([3]; rat no. 3, urine 4–8 h): 3.2 ng/mL | M1–D1 absolute amount in urine after hydrolysis ([3]; rat no. 3, urine 8–24 h): 860 ng | M1–D1 concentration in urine after hydrolysis ([3]; rat no. 3, urine 8–24 h): 86 ng/mL | M1–D1 absolute amount in urine after hydrolysis ([3]; rat no. 3, urine 24–48 h): 88 ng | M1–D1 concentration in urine after hydrolysis ([3]; rat no. 3, urine 24–48 h): 11 ng/mL | M1–D1 absolute amount in urine after hydrolysis ([3]; rat no. 3, urine 48–72 h): 6.4 ng | M1–D1 concentration in urine after hydrolysis ([3]; rat no. 3, urine 48–72 h): 0.71 ng/mL

CC(C(O)c1ccccc1)N(C)C(=O)OC(C)(C)C (single isomer, unassigned) [M1–D2, N-tert-butoxycarbonylpseudoephedrine]
Detection after incubation of BocMA (LC–QToF–MS) [1]: produced | Share of the degraded products detected as this metabolite [1]: 4% | Detection after incubation of BocMA (LC–QToF–MS) [2]: detected | Share of the degraded products detected as this metabolite [2]: 40% | M1–D2 absolute amount in urine after hydrolysis ([3]; average of 3 rats, urine 0–72 h total): 85 ng | M1–D2 absolute amount in urine after hydrolysis ([3]; rat no. 1, urine 0–4 h): 7.8 ng | M1–D2 concentration in urine after hydrolysis ([3]; rat no. 1, urine 0–4 h): 5.2 ng/mL | M1–D2 concentration in urine before hydrolysis ([3]; rat no. 1, urine 0–4 h): 1.5 ng/mL | M1–D2 absolute amount in urine after hydrolysis ([3]; rat no. 1, urine 0–72 h total): 43 ng | M1–D2 absolute amount in urine after hydrolysis ([3]; rat no. 1, urine 4–8 h): 35 ng | M1–D2 concentration in urine after hydrolysis ([3]; rat no. 1, urine 4–8 h): 35 ng/mL | M1–D2 concentration in urine before hydrolysis ([3]; rat no. 1, urine 4–8 h): 0.67 ng/mL | M1–D2 absolute amount in urine after hydrolysis ([3]; rat no. 2, urine 0–4 h): 24 ng | M1–D2 concentration in urine after hydrolysis ([3]; rat no. 2, urine 0–4 h): 12 ng/mL | M1–D2 concentration in urine before hydrolysis ([3]; rat no. 2, urine 0–4 h): 12 ng/mL | M1–D2 absolute amount in urine after hydrolysis ([3]; rat no. 2, urine 0–72 h total): 52 ng | M1–D2 absolute amount in urine after hydrolysis ([3]; rat no. 2, urine 4–8 h): 28 ng | M1–D2 concentration in urine after hydrolysis ([3]; rat no. 2, urine 4–8 h): 14 ng/mL | M1–D2 concentration in urine before hydrolysis ([3]; rat no. 2, urine 4–8 h): 1.0 ng/mL | M1–D2 absolute amount in urine after hydrolysis ([3]; rat no. 3, urine 0–4 h): 50 ng | M1–D2 concentration in urine after hydrolysis ([3]; rat no. 3, urine 0–4 h): 100 ng/mL | M1–D2 concentration in urine before hydrolysis ([3]; rat no. 3, urine 0–4 h): 8.1 ng/mL | M1–D2 absolute amount in urine after hydrolysis ([3]; rat no. 3, urine 0–72 h total): 160 ng | M1–D2 absolute amount in urine after hydrolysis ([3]; rat no. 3, urine 4–8 h): 66 ng | M1–D2 concentration in urine after hydrolysis ([3]; rat no. 3, urine 4–8 h): 33 ng/mL | M1–D2 concentration in urine before hydrolysis ([3]; rat no. 3, urine 4–8 h): 1.5 ng/mL | M1–D2 absolute amount in urine after hydrolysis ([3]; rat no. 3, urine 8–24 h): 42 ng | M1–D2 concentration in urine after hydrolysis ([3]; rat no. 3, urine 8–24 h): 4.2 ng/mL

CC(N)Cc1ccc(O)cc1 (centres unmarked) [4OHAP, 4-hydroxy amphetamine, reference compound]
Detection after incubation of BocMA (LC–QToF–MS) [1]: not detected | Detection after incubation of BocMA (LC–QToF–MS) [2]: not detected | Detection in rat urine (LC–QToF–MS) [3]: not detected

CNC(C)Cc1ccc(O)cc1 (centres unmarked) [4OHMA, 4-hydroxy methamphetamine, reference compound]
Detection after incubation of BocMA (LC–QToF–MS) [1]: not detected | Detection after incubation of BocMA (LC–QToF–MS) [2]: not detected | Detection in rat urine (LC–QToF–MS) [3]: not detected

CC(N)Cc1ccccc1 (centres unmarked) [AP, amphetamine]
Detection after incubation of BocMA (LC–QToF–MS) [2]: not detected | Detection in rat urine (LC–QToF–MS) [3]: not detected

CC(NC(=O)OC(C)(C)C)C(O)c1ccccc1 (centres unmarked) [Boc-protected nor-ephedrine]
Detection after incubation of BocMA (LC–QToF–MS) [1]: not detected | Detection after incubation of BocMA (LC–QToF–MS) [2]: not detected

CC(C(=O)c1ccccc1)N(C)C(=O)OC(C)(C)C (centres unmarked) [BocMC, N-tert-butoxycarbonyl-2-(methylamino)-1-phenylpropan-1-one, reference compound]
Detection after incubation of BocMA (LC–QToF–MS) [1]: not detected | Detection after incubation of BocMA (LC–QToF–MS) [2]: not detected

CC(C(O)c1ccccc1)N(C)C(=O)OC(C)(C)C (centres unmarked) [M1]
Share of the degraded products detected as this metabolite [1]: 14% | Incubation time at which peak intensity was highest [2]: 3 min | Share of the degraded products detected as this metabolite [2]: 45% | Share of the degraded products detected as this metabolite ([2]; listed as M1 (D1, 2)): ~45% | M1 diastereomer ratio (R = M1–D1/M1–D2) ([3]; in vivo, rat urine): ≥ 1 | Detection in rat urine (LC–QToF–MS) [3]: detected in urine from all rats

CC(Cc1ccccc1)NC(=O)OC(C)(C)C (centres unmarked) [M2, N-tert-butoxycarbonylamphetamine]
Detection after incubation of BocMA (LC–QToF–MS) [1]: produced | Detection in rat urine (LC–QToF–MS) [3]: not detected

C[C@@H](Cc1ccc(O)cc1)N(C)C(=O)OC(C)(C)C [M3, N-tert-butoxycarbonyl-4-hydroxymethamphetamine]
Detection after incubation of BocMA (LC–QToF–MS) [1]: produced | Detection in rat urine (LC–QToF–MS) [3]: trace amount of M3 was detected only in the urine collected during 0–4 h from Rat No. 3

CC(NC(=O)OC(C)(C)C)C(=O)c1ccccc1 (centres unmarked) [M4, N-tert-butoxycarbonyl-2-amino-1-phenylpropan-1-one]
Detection after incubation of BocMA (LC–QToF–MS) [1]: produced | Detection after incubation of BocMA (LC–QToF–MS) [2]: detected | Incubation time at which peak intensity was highest [2]: 20 min | Detection in rat urine (LC–QToF–MS) [3]: not detected

C[C@H](NC(=O)OC(C)(C)CO)C(=O)c1ccccc1 [M5]
Detection after incubation of BocMA (LC–QToF–MS) [1]: produced | Detection after incubation of BocMA (LC–QToF–MS) [2]: detected | Incubation time at which peak intensity was highest [2]: 60 min | Urine collection interval with the highest ion peak intensity ([3]; rat urine): 4 to 8 h | Increase of peak intensity after hydrolysis ([3]; rat urine, β-glucuronidase hydrolysis): approximately tenfold | Detection in rat urine (LC–QToF–MS) [3]: detected in urine from all rats

CC1N(C)C(O)(OC(C)(C)C)OC1(O)c1ccccc1 (centres unmarked) [M6]
Detection after incubation of BocMA (LC–QToF–MS) [1]: produced | Detection after incubation of BocMA (LC–QToF–MS) [2]: detected | Incubation time at which peak intensity was highest [2]: 13 min | Detection in rat urine (LC–QToF–MS) [3]: not detected

CC(NC(=O)OC(C)(C)COC1OC(C(=O)O)C(O)C(O)C1O)C(=O)c1ccccc1 (centres unmarked) [M9]
Urine collection interval with the highest ion peak intensity ([3]; rat urine): 4 to 8 h | Detection in rat urine (LC–QToF–MS) [3]: detected in all rat urine collected until 72 h

CN[C@@H](C)Cc1ccccc1 [MA, Methamphetamine]
Share of the administered amount excreted in urine [4]: about 80% | Detection after incubation of BocMA (LC–QToF–MS) [1]: not detected | Detection after incubation of BocMA (LC–QToF–MS) [2]: not detected | Detection in rat urine (LC–QToF–MS) [3]: not detected
